These compounds were tested against full length XPA protein (Homo sapiens, UniProt P23025) (assay: biochemical). Conditions: IC50 (μM), EMSA, 32P labeled 30 bp duplex DNA containing a single 1,2 dGpG cisplatin adduct, several values in a cell = separate determinations.
Description: Purified XPA (lanes 2-18) was mixed with DMSO (Lane 2, C) control or the indicated compound at a concentration of 50 μM (Lanes 3-18). ^32P labeled ds-platinum damaged DNA was added and incubation continued for 30 minutes on ice. The products were separated on a 6% native gel by electrophoresis at 4° C. Products were detected and quantified by PhosphorImager analysis.
EMSA was carried out using previously described procedure with the following modification. Reactions were performed in volume of 20 μL, containing a ^32P labeled 30 bp duplex DNA containing a single 1,2 dGpG cisplatin adduct. Compounds were pre-incubated on ice with the indicated amount of XPA and products separated by electrophoresis on a non-denaturing 6% polyacrylamide gel. Gels were cooled, loaded and electrophoresis performed at 4° C. Gels were used to expose a Phosphorlmager screen and band intensity determined and % binding and inhibition calculated as we have previously described.
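Further: XPA expressed in Sf9 cells, preincubated with compound on ice before adding DNA, complex resolved on native polyacrylamide gel at 4 °C, PhosphorImager band intensity, binding inhibition versus DMSO.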

full length XPA protein, sequence (P23025 whole entry): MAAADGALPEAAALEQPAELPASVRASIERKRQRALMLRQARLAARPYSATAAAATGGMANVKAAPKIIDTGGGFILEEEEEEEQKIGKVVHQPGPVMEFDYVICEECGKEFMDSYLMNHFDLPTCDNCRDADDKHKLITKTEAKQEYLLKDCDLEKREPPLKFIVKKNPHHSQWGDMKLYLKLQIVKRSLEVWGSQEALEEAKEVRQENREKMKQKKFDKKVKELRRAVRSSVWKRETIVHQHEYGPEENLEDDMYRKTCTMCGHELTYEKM

Row | SMILES | IC50 [µM]
1 | O=C(O)c1cccc(N2N=C(C(F)(F)F)C(Cc3ccc(-c4ccc(Cl)c(C(=O)NCC5CC5)c4)o3)C2=O)c1 (stereo not shown) [NG-04-309, 3-(4-((5-(4-chloro-3-((cyclopropylmethyl)carbamoyl)phenyl)furan-2-yl)methyl)-5-oxo-3-(trifluoromethyl)-4,5-dihydro-1H-pyrazol-1-yl)benzoic acid] | 40
2 | COc1cccc(NC(=O)c2cc(-c3ccc(/C=C4\C(=O)N(c5cccc(C(=O)O)c5)N=C4C(F)(F)F)o3)ccc2Cl)c1 [NG-04-312, 3-(4-((5-(4-chloro-3-((3-methoxyphenyl)carbamoyl)phenyl)furan-2-yl)methylene)-5-oxo-3-(trifluoromethyl)-4,5-dihydro-1H-pyrazol-1-yl)benzoic acid] | > 50
3 | O=C(O)c1cccc(N2N=C(C(F)(F)F)/C(=C/c3ccc(-c4ccc(Cl)c(C(=O)O)c4)o3)C2=O)c1 [NG-04-314, 5-(5-((1-(3-carboxyphenyl)-5-oxo-3-(trifluoromethyl)-1,5-dihydro-4H-pyrazol-4-ylidene)methyl)furan-2-yl)-2-chlorobenzoic acid] | 15
4 | COc1cccc(NC(=O)c2cc(-c3ccc(CC4C(=O)N(c5cccc(C(=O)O)c5)N=C4C(F)(F)F)o3)ccc2Cl)c1 (stereo not shown) [NG-04-322, 3-(4-((5-(4-chloro-3-((3-methoxyphenyl)carbamoyl)phenyl)furan-2-yl)methyl)-5-oxo-3-(trifluoromethyl)-4,5-dihydro-1H-pyrazol-1-yl)benzoic acid] | 30

— patent US11207296B2, “XPA inhibitor compounds and their use” (INDIANA UNIVERSITY RESEARCH AND TECHNOLOGY CORPORATION, priority 2017, dated 2021)
